From PubChem BioAssay (NCI) come the findings set out here.

The structures appear in SMILES notation. Where “and” joins values, the source holds several entries; their conditions need not be identical. Equal values may be shown once.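 Step 1: Grow cells in 96-well plates. Step 2: Expose to compound for 48 hours at 5 concentrations. Step 3: Interpolate endpoints linearly; if unreached, use highest concentration. At the GI50, growth is halved. TGI is the concentration that stops growth completely.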

Among the test systems are SK-MEL-28 melanoma; HT29 colon; OVCAR-4 ovarian; OVCAR-8 ovarian; EKVX NSCLC; SR leukemia; HOP-62 NSCLC; SK-OV-3 ovarian; HCT-15 colon; UACC-62 melanoma.
What all share (test): NCI tumour cell line growth inhibition, 48 h

As to `COc1cc2c(cc1OC)-c1ccc3cc4c(cc3c1N(CCN(C)C)C2)OCO4`, the GI50 in the experiment with SK-MEL-28 melanoma is 3.04 µM; in the experiment on HT29 colon, 0.265 µM; with OVCAR-4 ovarian it was 0.911 µM; in the experiment with OVCAR-8 ovarian, 0.51 µM; with EKVX NSCLC, 1.33 µM; with SR leukemia it was 0.0524 µM. Further, the GI50 in the experiment on HOP-62 NSCLC is 0.373 µM; in the experiment on SK-OV-3 ovarian, 0.518 µM; with HCT-15 colon, 4.09 µM; with UACC-62 melanoma it was 0.403 µM. Moreover, the TGI with SK-MEL-28 melanoma came out at 17.3 µM; with HT29 colon it was 1.64 µM; with OVCAR-4 ovarian, 13.3 µM; with OVCAR-8 ovarian, 3.44 µM; with EKVX NSCLC, 13.7 µM; in the experiment with SR leukemia, 2.63 µM. In addition, the TGI with HOP-62 NSCLC came out at 3.97 µM; in the experiment on SK-OV-3 ovarian it was 3.2 µM; in the experiment with HCT-15 colon, 17.6 µM; with UACC-62 melanoma, 5.4 µM.
With `OC(C1CO1)C(O)C1CO1` (stereo not given), the TGI in the experiment on SK-MEL-28 melanoma is 144 µM and 239 µM; in the experiment with HT29 colon, 150 µM and 345 µM; in the experiment with OVCAR-4 ovarian, 150 µM and 299 µM; in the experiment on OVCAR-8 ovarian it was 115 µM and 453 µM; in the experiment with EKVX NSCLC it was 150 µM and 348 µM; in the experiment with SR leukemia it was 72.2 µM and 528 µM. Besides, the TGI was 36.5 µM and 99.7 µM in the experiment with HOP-62 NSCLC; 95.2 µM and 186 µM in the experiment with SK-OV-3 ovarian; 131 µM and 406 µM in the experiment with HCT-15 colon; 72.1 µM and 130 µM with UACC-62 melanoma. Further, the GI50 was 97.7 µM with HT29 colon; 134 µM with OVCAR-4 ovarian; 175 µM in the experiment on EKVX NSCLC; 8.57 µM in the experiment on HOP-62 NSCLC; 5.68 µM in the experiment with SK-OV-3 ovarian.
As for `CN[C@@H]1C[C@H]2O[C@@](C)([C@@H]1OC)n1c3ccccc3c3c4c(c5c6ccccc6n2c5c31)C(=O)N[C@H]4O`, the GI50 in the experiment with SK-MEL-28 melanoma was 0.0845 µM; in the experiment on HT29 colon it was 0.0827 µM; with OVCAR-4 ovarian, 0.125 µM; in the experiment on OVCAR-8 ovarian it was 0.0885 µM; with EKVX NSCLC, 0.059 µM; in the experiment with SR leukemia, 0.0336 µM. Also, the GI50 in the experiment with HOP-62 NSCLC was 0.0187 µM; with SK-OV-3 ovarian, 0.0337 µM; in the experiment with HCT-15 colon it was 0.157 µM; in the experiment with UACC-62 melanoma, 0.0134 µM. Besides, the TGI in the experiment on SK-MEL-28 melanoma was 1.48 µM; in the experiment with HT29 colon, 1.38 µM; in the experiment with OVCAR-4 ovarian, greater than 10 µM; in the experiment on OVCAR-8 ovarian, greater than 5.44 µM; in the experiment with EKVX NSCLC, greater than 10 µM; with SR leukemia it was 1.92 µM. Also, the TGI with HOP-62 NSCLC is 0.766 µM; with SK-OV-3 ovarian, 0.298 µM; in the experiment on HCT-15 colon it was greater than 3.31 µM; with UACC-62 melanoma, 0.231 µM.
Take `CCCCCCCC(=O)OCC1OC(n2cc(F)c(=O)[nH]c2=O)C(NC(=O)OCc2ccccc2)C(O)C1O` (stereo not given): the TGI in the experiment with SK-MEL-28 melanoma, in the experiment with HT29 colon, in the experiment on OVCAR-4 ovarian, in the experiment on OVCAR-8 ovarian, in the experiment with EKVX NSCLC and in the experiment with SR leukemia was greater than 100 µM in each case. Further, the TGI in the experiment on HOP-62 NSCLC, with SK-OV-3 ovarian, in the experiment with HCT-15 colon and in the experiment with UACC-62 melanoma was greater than 100 µM in each case.
`COc1cc(C=O)c(-c2cc3c(cc2C2(C)OCCS2)OCO3)c(OC)c1OC` (stereo not given): the TGI is 26 µM with SK-MEL-28 melanoma; 20.7 µM in the experiment with HT29 colon; 173 µM in the experiment on OVCAR-4 ovarian; greater than 75.1 µM in the experiment on OVCAR-8 ovarian; greater than 97 µM in the experiment with EKVX NSCLC; 50 µM with SR leukemia. The TGI with HOP-62 NSCLC was 47.1 µM; in the experiment with SK-OV-3 ovarian it was greater than 239 µM; in the experiment on HCT-15 colon, 30.2 µM; in the experiment on UACC-62 melanoma it was 61.4 µM.
On to `N#Cc1ccc(C2C3=C(CCCC3=O)OC3=C2C(=O)c2ccccc2C3=O)cc1` (stereo not given), for which the GI50 with SK-MEL-28 melanoma is 1.82 µM; in the experiment with HT29 colon, 2.91 µM; in the experiment with OVCAR-4 ovarian, 0.265 µM; in the experiment on OVCAR-8 ovarian, 0.722 µM; in the experiment on EKVX NSCLC it was 1.28 µM; with SR leukemia, 3.47 µM. The GI50 was 1.95 µM in the experiment on HOP-62 NSCLC, 3.17 µM in the experiment with SK-OV-3 ovarian, 1.6 µM in the experiment on HCT-15 colon and 2.06 µM in the experiment on UACC-62 melanoma. Also, the TGI is 3.3 µM in the experiment on SK-MEL-28 melanoma; 8.04 µM with HT29 colon; 1.07 µM in the experiment with OVCAR-4 ovarian; 4.79 µM in the experiment on OVCAR-8 ovarian; 3.86 µM with EKVX NSCLC; greater than 100 µM in the experiment with SR leukemia. Further, the TGI in the experiment with HOP-62 NSCLC was 3.78 µM; in the experiment with SK-OV-3 ovarian it was 9.6 µM; in the experiment on HCT-15 colon it was 3.71 µM; with UACC-62 melanoma, 4.02 µM.
For the compound `O=C(O)c1ccc2c3c(ncnc13)-c1ccccc1C2=O`, the GI50 was 1.64 µM with SK-MEL-28 melanoma; 3.45 µM in the experiment on HT29 colon; greater than 100 µM in the experiment with OVCAR-4 ovarian; 47.5 µM in the experiment on OVCAR-8 ovarian; 51.6 µM with EKVX NSCLC; 35.7 µM in the experiment with SR leukemia. Moreover, the GI50 with HOP-62 NSCLC was 1.76 µM; in the experiment with SK-OV-3 ovarian, greater than 89.5 µM; with HCT-15 colon, 2.47 µM; with UACC-62 melanoma, 2.44 µM. Also, the TGI in the experiment with SK-MEL-28 melanoma was 4.04 µM; with HT29 colon it was greater than 28 µM; with OVCAR-4 ovarian it was greater than 100 µM; with OVCAR-8 ovarian, greater than 100 µM; with EKVX NSCLC, greater than 100 µM; in the experiment with SR leukemia it was greater than 100 µM. The TGI in the experiment on HOP-62 NSCLC is 3.75 µM; in the experiment on SK-OV-3 ovarian it was greater than 100 µM; with HCT-15 colon, greater than 48 µM; in the experiment with UACC-62 melanoma, 6.11 µM.
Regarding `O=C(O)c1ccc([S-])cc1.[Au+].c1ccc(CN2[CH-]N(Cc3ccccc3)C(c3ccccc3)=C2c2ccccc2)cc1`, the GI50 in the experiment on SK-MEL-28 melanoma was 0.43 µM; in the experiment with HT29 colon, 0.434 µM; in the experiment on OVCAR-4 ovarian it was 0.373 µM; in the experiment with OVCAR-8 ovarian it was 0.417 µM; with EKVX NSCLC it was 0.274 µM; in the experiment on SR leukemia, 0.429 µM. In addition, the GI50 was 0.416 µM in the experiment on HOP-62 NSCLC, 0.352 µM in the experiment on SK-OV-3 ovarian, 1.04 µM in the experiment with HCT-15 colon and 0.319 µM in the experiment on UACC-62 melanoma. In addition, the TGI amounted to 1.71 µM in the experiment on SK-MEL-28 melanoma; 1.58 µM with HT29 colon; 1.3 µM in the experiment with OVCAR-4 ovarian; 1.66 µM in the experiment on OVCAR-8 ovarian; 1.53 µM in the experiment with EKVX NSCLC; 2.76 µM with SR leukemia. For the same compound, the TGI in the experiment with HOP-62 NSCLC came out at 1.73 µM; in the experiment with SK-OV-3 ovarian, 1.39 µM; in the experiment with HCT-15 colon, 2.55 µM; with UACC-62 melanoma, 1.4 µM.
